Data taken from US20160355530A1, “HEPATITIS C INHIBITORS AND USES THEREOF” (AbbVie Inc., priority 2010, published 2016).
Read-outs that look alike come from different tables or passages of the source.

What was measured:
[1] = system: HCV 1a-H77 subgenomic replicon; assay: microbe, parasite or virus in culture; format: cell-based, HCV genotype 1a; conditions: Hepatitis C virus
[2] = system: chimeric replicon with 2a-J6CF-derived NS5B; assay: microbe, parasite or virus in culture; format: cell-based, HCV genotype 2a; conditions: Hepatitis C virus, read-out: 2a chimera 5% FBS EC50
[3] = target: T1, HCV NS5B polymerase 1a-H77 (Hepatitis C virus genotype 1a, UniProt P27958); assay: biochemical; set-up: species or system HCV genotype 1a
T1 construct: six-histidine tag; made in house; host or cells: E. coli
How it was run: (§1)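 Recombinant NS5B (residues 1–570, His-tagged, E. coli-expressed) copied 5 nM of a 2.1 kb HCV 1b negative-strand 3′-end RNA template with 20 μM CTP, 20 μM ATP and 0.284 μM [3H]UTP for 3 h at 30 °C. Spermine-precipitated RNA was filter-captured and counted, and IC50 was fitted by nonlinear regression.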

[4] = target: T2, HCV NS5B polymerase 1a-H77-C316Y (Hepatitis C virus genotype 1a, UniProt P27958, C2736Y); assay: biochemical; set-up: species or system HCV genotype 1a
T2 construct: six-histidine tag; made in house; host or cells: E. coli
How it was run: as §1

[5] = system: HCV NS5B polymerase 1a-H77-C316Y; assay: biochemical; set-up: species or system HCV genotype 1a; conditions: ratio of enzyme IC50s, 1a H77-C316Y / 1a H77
How it was run: as §1

[6] = system: chimeric replicon with genotype 4a NS5B; assay: microbe, parasite or virus in culture; format: cell-based, HCV genotype 4a; conditions: Hepatitis C virus, read-out: 4a chimera 5% FBS EC50
[7] = system: HCV 1a-H77 transient subgenomic replicon in Huh-7 derived cell line; assay: microbe, parasite or virus in culture; format: cell-based, HCV genotype 1a; conditions: Hepatitis C virus
How it was run: (§2)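 Subgenomic replicon RNA (no Neo gene) electroporated into Huh-7-derived cells, plated at 5×10^3 cells/well; a 4 h plate gauged transfection efficiency. Cells exposed to 3-fold compound dilutions (0.5% DMSO) for 4 days at 37° C, then lysed for luciferase readout; EC50 calculated.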

[8] = system: HCV 1a-H77-C316Y transient subgenomic replicon in Huh-7 derived cell line; assay: microbe, parasite or virus in culture; format: cell-based, HCV genotype 1a; conditions: for EC50: Hepatitis C virus, Huh-7, read-out: Transient Replicon 1a H77-C316Y 5% FBS EC50; for Transient Replicon Fold Resistance C316Y/1a: ratio of transient replicon EC50s, C316Y / 1a H77
How it was run: as §2

[9] = target: T3, HCV NS5B polymerase 1b BK strain (Hepatitis C virus genotype 1b, UniProt P26663); assay: HCV NS5B polymerase enzymatic inhibition assay, strain 1b BK; format: biochemical
T3 construct: six-histidine tag; made in house; host or cells: E. coli
How it was run: as §1

[10] = system: HCV 1b-BB7 subgenomic replicon; assay: microbe, parasite or virus in culture; format: cell-based, HCV genotype 1b; conditions: Hepatitis C virus
[11] = system: chimeric replicon with genotype 2b NS5B; assay: microbe, parasite or virus in culture; format: cell-based, HCV genotype 2b; conditions: Hepatitis C virus, read-out: 2b chimera 5% FBS EC50
[12] = system: chimeric replicon with genotype 3a NS5B; assay: microbe, parasite or virus in culture; format: cell-based, HCV genotype 3a; conditions: Hepatitis C virus, read-out: 3a chimera 5% FBS EC50
[13] = stable replicon, 5% FBS, absence of human plasma, read-out: Stable Replicon 1a H77 5% FBS EC50
[14] = stable replicon, strain 1a H77, 5% FBS + 40% human plasma, read-out: 1a H77 5% FBS + 40% Human Plasma EC50
[15] = stable replicon, strain 1a H77, 5% FBS, no human plasma, read-out: 1a H77 5% FBS EC50
[16] = stable replicon, strain 1a H77, 5% FBS, read-out: 1a H77 5% FBS EC50
[17] = enzyme, strain 1a H77, read-out: HCV Polymerase Strain 1a H77 IC50
[18] = Huh-7, transient replicon, 5% FBS, read-out: Transient Replicon 1a H77 5% FBS EC50
[19] = enzyme, strain 1b BK, read-out: HCV Polymerase Strain 1b BK IC50
[20] = stable replicon, strain 1b BB7, 5% FBS + 40% human plasma, read-out: 1b BB7 5% FBS + 40% Human Plasma EC50
[21] = stable replicon, strain 1b BB7, 5% FBS, no human plasma, read-out: 1b BB7 5% FBS EC50
[22] = stable replicon, strain 1b BB7, 5% FBS, read-out: 1b BB7 5% FBS EC50

T3 sequence (P26663 2420-2989): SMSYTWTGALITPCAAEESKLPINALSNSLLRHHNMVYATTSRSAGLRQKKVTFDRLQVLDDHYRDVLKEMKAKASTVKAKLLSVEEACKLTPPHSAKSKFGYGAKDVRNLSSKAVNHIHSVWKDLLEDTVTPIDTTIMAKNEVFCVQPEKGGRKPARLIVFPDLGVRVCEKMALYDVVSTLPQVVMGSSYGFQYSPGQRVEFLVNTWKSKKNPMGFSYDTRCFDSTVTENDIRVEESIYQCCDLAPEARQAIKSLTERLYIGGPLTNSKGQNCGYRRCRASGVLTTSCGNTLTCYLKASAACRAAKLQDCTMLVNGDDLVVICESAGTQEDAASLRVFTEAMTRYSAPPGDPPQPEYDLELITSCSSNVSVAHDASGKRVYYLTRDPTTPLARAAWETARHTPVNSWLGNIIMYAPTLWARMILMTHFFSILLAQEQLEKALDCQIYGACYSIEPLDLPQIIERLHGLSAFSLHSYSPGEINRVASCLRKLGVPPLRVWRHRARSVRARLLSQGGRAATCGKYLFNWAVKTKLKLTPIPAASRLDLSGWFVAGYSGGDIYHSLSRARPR
T2 sequence (P27958 2421-2990 C2736Y): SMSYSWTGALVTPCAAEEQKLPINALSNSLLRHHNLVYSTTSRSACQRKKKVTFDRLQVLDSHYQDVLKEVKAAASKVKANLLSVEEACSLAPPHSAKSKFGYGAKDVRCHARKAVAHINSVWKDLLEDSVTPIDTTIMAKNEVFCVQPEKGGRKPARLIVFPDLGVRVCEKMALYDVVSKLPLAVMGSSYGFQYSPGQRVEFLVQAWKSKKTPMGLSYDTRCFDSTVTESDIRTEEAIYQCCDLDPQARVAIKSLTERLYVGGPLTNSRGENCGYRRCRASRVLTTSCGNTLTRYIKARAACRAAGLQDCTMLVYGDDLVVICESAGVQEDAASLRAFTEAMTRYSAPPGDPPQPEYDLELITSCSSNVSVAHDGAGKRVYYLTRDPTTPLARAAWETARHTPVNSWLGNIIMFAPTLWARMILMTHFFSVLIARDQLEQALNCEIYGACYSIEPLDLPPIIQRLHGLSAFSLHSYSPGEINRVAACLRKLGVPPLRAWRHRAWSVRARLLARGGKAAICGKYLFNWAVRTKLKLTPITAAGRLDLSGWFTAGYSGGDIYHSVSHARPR
T1 sequence (P27958 2421-2990): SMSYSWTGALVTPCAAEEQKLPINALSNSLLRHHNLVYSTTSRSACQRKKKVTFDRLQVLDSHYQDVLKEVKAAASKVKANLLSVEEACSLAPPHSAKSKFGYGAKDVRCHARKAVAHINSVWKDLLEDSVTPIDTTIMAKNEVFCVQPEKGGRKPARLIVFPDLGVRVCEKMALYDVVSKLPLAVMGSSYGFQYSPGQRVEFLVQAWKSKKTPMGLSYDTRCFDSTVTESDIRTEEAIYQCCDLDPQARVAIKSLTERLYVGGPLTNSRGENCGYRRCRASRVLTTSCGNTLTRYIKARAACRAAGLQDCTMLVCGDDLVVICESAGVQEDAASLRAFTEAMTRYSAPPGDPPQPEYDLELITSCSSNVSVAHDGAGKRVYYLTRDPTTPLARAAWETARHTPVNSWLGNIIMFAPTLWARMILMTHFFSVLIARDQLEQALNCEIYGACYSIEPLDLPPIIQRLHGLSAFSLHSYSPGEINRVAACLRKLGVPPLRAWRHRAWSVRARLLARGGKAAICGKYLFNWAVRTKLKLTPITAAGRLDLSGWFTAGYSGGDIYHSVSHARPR

| Structure (SMILES) | EC50 [2] [nM] | IC50 [4] [nM] | C316Y/1a Fold Resistance [5] [fold] | EC50 [6] [nM] | EC50 [8] [nM] | Transient Replicon Fold Resistance C316Y/1a [8] [fold] | EC50 [11] [nM] | EC50 [12] [nM] | EC50 [1, 13] [nM] | EC50 [1, 14] [nM] | EC50 [1, 15] [nM] | EC50 [1, 16] [nM] | IC50 [3, 17] [nM] | EC50 [7, 18] [nM] | IC50 [9, 19] [nM] | EC50 [10, 20] [nM] | EC50 [10, 21] [nM] | EC50 [10, 22] [nM] | further results |
| --- | --- | --- | --- | --- | --- | --- | --- | --- | --- | --- | --- | --- | --- | --- | --- | --- | --- | --- | --- |
| CS(=O)(=O)N(CCC1CCS(=O)(=O)C1)c1cc2oc(-c3ccc(F)cc3)c(-c3ncc[nH]3)c2cc1C1CC1 (stereo not shown) [Example 61, N-[5-cyclopropyl-2-(4-fluorophenyl)-3-(1H-imidazol-2-yl)-1-benzofuran-6-yl]-N-[2-(1,1-dioxidotetrahydrothiophen-3-yl)ethyl]methanesulfonamide] | 41 | 76 | 9 | 18.4 | 45.8 | 13 | 29.9 | 6.2 |  |  |  |  |  |  |  |  |  |  | EC50 ([1]; read-out: 1a H77 5% FBS + 40% Human Plasma EC50): 72.2 nM; EC50 ([1]; read-out: 1a H77 5% FBS EC50): 5.4 nM; EC50 ([1]; read-out: Stable Replicon 1a H77 5% FBS EC50): 5.4 nM; IC50 [3]: 8.9 nM; EC50 ([7]; Huh-7, read-out: Transient Replicon 1a H77 5% FBS EC50): 3.6 nM; IC50 [9]: 16 nM; EC50 ([10]; read-out: 1b BB7 5% FBS + 40% Human Plasma EC50): 18.4 nM; EC50 ([10]; read-out: 1b BB7 5% FBS EC50): 3 nM |
| Cc1ccc(C)n1-c1nc(CCCN(c2cc3oc(-c4ccc(F)cc4)c(-c4ncc[nH]4)c3cc2C2CC2)S(C)(=O)=O)cs1 [Example 62, N-[5-cyclopropyl-2-(4-fluorophenyl)-3-(1H-imidazol-2-yl)-1-benzofuran-6-yl]-N-{3-[2-(2,5-dimethyl-1H-pyrrol-1-yl)-1,3-thiazol-4-yl]propyl}methanesulfonamide] | 309 | 250 | 65 | 364 | 899 | 15 | 471 | 49.9 | 88.7 | 342 | 88.7 | 88.7 | 3.9 | 60.6 | 14 | 328 | 71 | 71 |  |
| CS(=O)(=O)N(CC#N)c1cc2oc(-c3ccc(F)cc3)c(-c3ncc[nH]3)c2cc1C1CC1 [Example 63, N-(cyanomethyl)-N-[5-cyclopropyl-2-(4-fluorophenyl)-3-(1H-imidazol-2-yl)-1-benzofuran-6-yl]methanesulfonamide] | 131 | 2100 | 470 | 702 | 1900 | 25 | 108 | 6.8 | 67 | 1160 | 67 | 67 | 4.5 | 75.6 | 47 | 195 | 14.4 | 14.4 |  |
| CS(=O)(=O)N(CCCO)c1cc2oc(-c3ccc(F)cc3)c(-c3ncc[nH]3)c2cc1C1CC1 [Example 65, N-[5-cyclopropyl-2-(4-fluorophenyl)-3-(1H-imidazol-2-yl)-1-benzofuran-6-yl]-N-(3-hydroxypropyl)methanesulfonamide] | 42.4 | 166 | 24 | 87.5 | 228 | 42 | 68.5 | 4 | 10.3 | 121 | 10.3 | 10.3 | 6.9 | 5.4 | 52 | 59.5 | 6.8 | 6.8 |  |
| CS(=O)(=O)N(CCCS(N)(=O)=O)c1cc2oc(-c3ccc(F)cc3)c(-c3ncc[nH]3)c2cc1C1CC1 [Example 80, 3-{[5-cyclopropyl-2-(4-fluorophenyl)-3-(1H-imidazol-2-yl)-1-benzofuran-6-yl](methylsulfonyl)amino}propane-1-sulfonamide] | 211 | 55 | 11 | 373 | 162 | 20 | 283 | 12.2 | 12.1 | 52 | 12.1 | 12.1 | 5 | 8.3 | 16 | 72 | 10.7 | 10.7 |  |
| CS(=O)(=O)N(CCCCF)c1cc2oc(-c3ccc(F)cc3)c(-c3ncc[nH]3)c2cc1C1CC1 [Example 83, N-[5-cyclopropyl-2-(4-fluorophenyl)-3-(1H-imidazol-2-yl)-1-benzofuran-6-yl]-N-(4-fluorobutyl)methanesulfonamide] | 46.7 | 79 | 14 | 67.3 | 128 | 21 | 47.3 | 6.1 | 6.9 | 89 | 6.9 | 6.9 | 5.5 | 6 | 26 | 96 | 8.19 | 8.2 |  |
| CC(C)(O)C(O)CCN(c1cc2oc(-c3ccc(F)cc3)c(-c3ncc[nH]3)c2cc1C1CC1)S(C)(=O)=O (stereo not shown) [Example 84, N-[5-cyclopropyl-2-(4-fluorophenyl)-3-(1H-imidazol-2-yl)-1-benzofuran-6-yl]-N-(3,4-dihydroxy-4-methylpentyl)methanesulfonamide] | 103 | 41 | 12 | 142 | 184 | 7 | 30.9 | 15.1 | 14.9 | 218 | 14.9 | 14.9 | 3.5 | 25.4 | 19 | 146 | 14.1 | 14.1 |  |
| CNS(=O)(=O)CCCN(c1cc2oc(-c3ccc(F)cc3)c(-c3ncc[nH]3)c2cc1C1CC1)S(C)(=O)=O [Example 86, 3-{[5-cyclopropyl-2-(4-fluorophenyl)-3-(1H-imidazol-2-yl)-1-benzofuran-6-yl](methylsulfonyl)amino}-N-methylpropane-1-sulfonamide] | 64.2 | 56 | 11 | 108 | 92.1 | 33 | 137 | 11.5 | 12.3 | 86 | 12.3 | 12.3 | 5 | 2.8 | 18 | 41 | 6.7 | 6.7 |  |
